# From PubChem BioAssay AID652032 (The Scripps Research Institute Molecular Screening Center, 2013)
# Biological target: Kappa-type opioid receptor (Homo sapiens) (UniProt P41145)
# Experiment: OPRK1 antagonists, late-stage follow-up, cell-based, fluorescence, dose response (AID 652032)
# Conditions: OPRK1-expressing cells, fluorescence antagonist read-out
# Chain of Kappa-type opioid receptor (Homo sapiens) (P41145 whole entry, looked up): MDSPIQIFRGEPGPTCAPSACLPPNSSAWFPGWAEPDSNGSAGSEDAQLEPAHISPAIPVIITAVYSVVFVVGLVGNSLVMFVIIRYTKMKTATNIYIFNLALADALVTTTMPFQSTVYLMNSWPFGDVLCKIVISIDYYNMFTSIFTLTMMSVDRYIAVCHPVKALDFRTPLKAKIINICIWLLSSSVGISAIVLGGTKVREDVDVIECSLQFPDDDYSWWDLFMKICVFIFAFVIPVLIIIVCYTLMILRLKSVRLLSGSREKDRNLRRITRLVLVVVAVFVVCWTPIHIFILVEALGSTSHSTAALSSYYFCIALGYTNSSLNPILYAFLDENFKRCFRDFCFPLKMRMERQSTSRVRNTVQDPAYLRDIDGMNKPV
row,Compound,IC50 [nM]
1,COC(=O)c1cccnc1N1CCC(NC2CCCCC2)C(O)C1 (configuration not stated),2200
2,COC(=O)c1cc(F)cnc1N1CCC(NC2CCCCC2)CC1,6600
3,COC(=O)c1cc(Br)cnc1N1CCC(N(C)C2CCCCC2)CC1,2700
4,COC(=O)c1cc(Br)cnc1N1CCC(NC2CCC(C)CC2)CC1 (configuration not stated),536
5,O=C(O)c1cc(Br)cnc1N1CCC(NC2CCCCC2)CC1,5200
6,COC(=O)c1cc(NC(C)=O)cnc1N1CCC(NC2CCCCC2)CC1,628
7,COC(=O)c1cc(Br)cnc1N1CCC(N)C(O)C1 (configuration not stated),5900
8,COC(=O)c1cc(Br)cnc1N1CCC(NC2CCOCC2)CC1,621
9,COC(=O)c1cc(Br)cnc1N1CCC(NC2CCCC(O)C2)CC1 (configuration not stated),652
10,COC(=O)c1cc(Br)cnc1N1CCC(CNC2CCCCC2)CC1,3500
11,COC(=O)c1cc(Br)cnc1N1CCC(NCCO)CC1,9200
12,CCOC(=O)c1cc(C(=O)OC)c(C)nc1N1CCC(NC2CCCCC2)CC1,2600
13,COC(=O)c1cc(Br)cnc1N1CCC(N[C@H](C)C2CCCCC2)CC1,6800

# The next compounds have a lower IC50 than those just listed; values first:
row,IC50 [nM],Compound
1,267,COC(=O)c1cc(Br)cnc1N1CCC(NC2CCCCC2OC)CC1 (configuration not stated)
2,231,COC(=O)c1cc(Br)cnc1N1CCC(N[C@@H]2CCCC[C@H]2O)CC1
3,398,CC(C)OC(=O)c1cc(Br)cnc1N1CCC(NC2CCCCC2)CC1
4,133,COC(=O)c1cc(Br)cnc1N1CCC(NC2CCCCC2)CC1
5,159,COC(=O)c1cc(Cl)cnc1N1CCC(NC2CCCCC2)CC1
6,120,COC(=O)c1cc(Br)cnc1N1CCC(NC2CCCC2)CC1
7,79,COC(=O)c1cc(I)cnc1N1CCC(NC2CCCCC2)CC1
8,185,COC(=O)c1cc(Br)cnc1N1CCC(NC2CCCCC2)C1 (configuration not stated)
9,110,COC(=O)c1cc(Br)cnc1N1CCC(NC2CCCCCC2)CC1
